This passage reports IC50 results from patent US11866431B2, “Bicyclic compounds” (Vivace Therapeutics, Inc., priority 2018, dated 2024).

The test system of the first test is 8XTBD luciferase reporter (YAP reporter) in HEK293T cells. Description: YAP Reporter Assay. The class given is cell-based. Particulars: Homo sapiens, HEK-293T, 24 h, read-out: Firefly Luciferase IC50 (μM). The essentials: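 HEK293T cells stably carrying 8XTBD firefly luciferase and TK-renilla (3×10^3 cells/well) dosed 3-4 h after plating with compounds from 3 μM final, 1:3 dilution, 10 points, quadruplicates. After 24 h at 37° C, Dual-Glo readings gave IC50 and maximum inhibition reported separately for firefly and renilla.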
Background: Reporter assays use an easily measured gene product as a stand-in for the process of interest.
The term IC50 denotes the midpoint of a concentration-inhibition curve. `C[C@H](NC(=O)c1ccc2c(-c3ccc(C(F)(F)F)cc3)cccc2c1)C1CN(CCO)C1` [Compound 140, N-[(1S)-1-[1-(2-hydroxyethyl)azetidin-3-yl]ethyl]-5-[4-(trifluoromethyl)phenyl]naphthalene-2-carboxamide]: the IC50 lay in the range of 0.1 to 1 µM.
`CC(C)NC(=O)c1cnc2c(-c3ccc(C(F)(F)F)cc3)cc(F)c(F)c2c1` [Compound 72, 5,6-Difluoro-N-isopropyl-8-(4-(trifluoromethyl)phenyl)quinoline-3-carboxamide]: the IC50 was less than 0.1 µM.

Staying with this test, now noted: Homo sapiens, HEK-293T; HEK293T cells stably transfected with 8XTBD luciferase reporter and pRLTK; 24-hr incubation; top concentration 3 μM; read-out: Firefly Luciferase IC50.
In the case of `CC(C)NC(=O)c1ccc2c(-c3ccc(C(F)(F)F)cc3)cc([S+](C)[O-])cc2c1` (stereo not shown) [Compound 45, N-isopropyl-7-methylsulfinyl-5-[4-(trifluoromethyl)phenyl]naphthalene-2-carboxamide], the IC50 fell in the range of 0.1 to 1 µM.
On the same count and under the same terms, the same measure for `CSc1cc(-c2ccc(C(F)(F)F)cc2)c2ccc(C(=O)NC(C)C)cc2c1` [Compound 42, N-isopropyl-7-(methylthio)-5-(4-(trifluoromethyl)phenyl)-2-naphthamide]: less than 0.1 µM; for `CS(=O)(=O)NC(=O)c1cnc2c(-c3ccc(C(F)(F)F)cc3)cc(OC3CC3)cc2c1` [Compound 122, 6-cyclopropoxy-N-(methylsulfonyl)-8-(4-(trifluoromethyl)phenyl)quinoline-3-carboxamide]: 0.1 to 1 µM.
Turning to `CC(C)(C)OC(=O)NCCOCCOCCNC(=O)c1ccc2c(-c3ccc(C(F)(F)F)cc3)cccc2c1` [Compound 49, Tert-Butyl (2-(2-(2-(5-(4-(trifluoromethyl)phenyl)-2-naphthamido)ethoxy)ethoxy)ethyl)carbamate], the IC50 was in the range of 0.1 to 1 µM.
The same measure, in the same setting: the same measure for `Cn1cc(-c2ccc(C(F)(F)F)cc2)c2ccc(C(=O)O)cc2c1=O` [Compound 337, 2-methyl-1-oxo-4-[4-(trifluoromethyl)phenyl]isoquinoline-7-carboxylic Acid]: 0.1 to 1 µM; for `CSc1ccc(-c2ccc(C(F)(F)F)cc2)c2ccc(C(=O)NC(C)C)cc12` [Compound 18, N-isopropyl-8-methylsulfanyl-5-[4-(trifluoromethyl)phenyl]naphthalene-2-carboxamide]: less than 0.1 µM.
Same read-out and setting: the same measure for `CC(C)NC(=O)c1ccc2c(-c3ccc(C(F)(F)F)cc3)nccc2c1` [Compound 11, N-isopropyl-1-[4-(trifluoromethyl)phenyl]isoquinoline-6-carboxamide]: less than 0.1 µM; for `CC(C)(C)NC(=O)c1ccc2c(-c3ccc(C(F)(F)F)cc3)cccc2c1` [Compound 264, N-(tert-butyl)-5-(4-(trifluoromethyl)phenyl)-2-naphthamide]: 0.1 to 1 µM; for `C[C@H](NC(=O)c1ccc2c(-c3ccc(C(F)(F)F)cc3)cccc2c1)c1cccc2nc[nH]c12` [Compound 174, N-[(1S)-1-(3H-benzimidazol-4-yl)ethyl]-5-[4-(trifluoromethyl)phenyl]naphthalene-2-carboxamide]: less than 0.1 µM.
Take `CN(C#N)CCCNC(=O)c1ccc2c(-c3ccc(C(F)(F)F)cc3)cccc2c1` [Compound 127, N-(3-(N-methylcyanamido)propyl)-5-(4-(trifluoromethyl)phenyl)-2-naphthamide]: the IC50 lay in the range of 0.1 to 1 µM.
Consider `C#CCCNC(=O)c1ccc2c(-c3ccc(C(F)(F)F)cc3)cccc2c1` [Compound 112, N-(but-3-yn-1-yl)-5-(4-(trifluoromethyl)phenyl)-2-naphthamide], for which the IC50 is less than 0.1 µM.
Turning to `CC(C)NC(=O)c1ccc2c(-c3ccc(C(F)(F)F)cc3)cc(C3CC3)cc2c1` [Compound 43, 7-cyclopropyl-N-isopropyl-5-[4-(trifluoromethyl)phenyl]naphthalene-2-carboxamide], the IC50 is less than 0.1 µM.
Take `N#C/C=C\CCNC(=O)c1ccc2c(-c3ccc(C(F)(F)F)cc3)cccc2c1` [Compound 216, N—[(Z)-4-cyanobut-3-enyl]-5-[4-(trifluoromethyl)phenyl]naphthalene-2-carboxamide]: the IC50 lay within 0.1 to 1 µM.
On the same count and under the same terms, the same measure for `C[C@@H](NC(=O)c1ccc2c(-c3ccc(C(F)(F)F)cc3)cccc2c1)c1cccc2ccsc12` [Compound 176, N-[(1R)-1-(benzothiophen-7-yl)ethyl]-5-[4-(trifluoromethyl)phenyl]naphthalene-2-carboxamide]: 0.1 to 1 µM; for `C[C@@H](NC(=O)c1ccc2c(-c3ccc(C(F)(F)F)cc3)cccc2c1)c1cn(C)cn1` [Compound 196, (R)—N-(1-(1-methyl-1H-imidazol-4-yl)ethyl)-5-(4-(trifluoromethyl)phenyl)-2-naphthamide]: 0.1 to 1 µM.
Take `C[C@H](CO)NC(=O)c1cnc2c(-c3ccc(C(F)(F)F)cc3)cccc2n1` [Compound 267, (R)—N-(1-hydroxypropan-2-yl)-5-(4-(trifluoromethyl)phenyl)quinoxaline-2-carboxamide]: the IC50 lay within 0.1 to 1 µM.
Same read-out and setting: the figure for `O=C(NC(CF)CF)c1ccc2c(-c3ccc(C(F)(F)F)cc3)cccc2c1` [Compound 62, N-(1,3-difluoropropan-2-yl)-5-(4-(trifluoromethyl)phenyl)-2-naphthamide] is 0.1 to 1 µM; for `C[C@@H](NC(=O)c1ccc2c(-c3ccc(C(F)(F)F)cc3)cccc2c1)c1cccnc1N` [Compound 218, (R)—N-[1-(2-amino-3-pyridyl)ethyl]-5-[4-(trifluoromethyl)phenyl]naphthalene-2-carboxamide] it is less than 0.1 µM; for `COc1cc(-c2ccc(C(F)(F)F)cc2)c2ccc(C(=O)N[C@H](C)CO)cc2c1` [Compound 297, (R)—N-(1-Hydroxypropan-2-yl)-7-methoxy-5-(4-(trifluoromethyl)phenyl)-2-naphthamide] it is less than 0.1 µM.
Consider `C[C@H](NC(=O)c1ccc2c(-c3ccc(C(F)(F)F)cc3)cccc2c1)C1CC1` [Compound 289, (S)—N-(1-cyclopropylethyl)-5-(4-(trifluoromethyl)phenyl)-2-naphthamide], for which the IC50 is less than 0.1 µM.
The same measure, in the same setting: the figure for `CCNCC[C@@H](C)NC(=O)c1cnc2c(-c3ccc(C(F)(F)F)cc3)cccc2c1` [Compound 316, N-[(1R)-3-(ethylamino)-1-methyl-propyl]-8-[4-(trifluoromethyl)phenyl]quinoline-3-carboxamide] is 0.1 to 1 µM; for `C[C@@H](NC(=O)c1cnc2c(-c3ccc(C(F)(F)F)cc3)cccc2c1)C1CN(C)C1` [Compound 156, N-[(1R)-1-(1-methylazetidin-3-yl)ethyl]-8-[4-(trifluoromethyl)phenyl]quinoline-3-carboxamide] it is 0.1 to 1 µM.
Still for that read-out and setting: the same measure for `C[C@@H](NC(=O)c1ccc2c(-c3ccc(C(F)(F)F)cc3)cccc2c1)C1CC1` [Compound 290, (R)—N-(1-cyclopropylethyl)-5-(4-(trifluoromethyl)phenyl)-2-naphthamide]: less than 0.1 µM; for `COc1ccc(-c2ccc(C(F)(F)F)cc2)c2ccc(C(=O)NC(C)C)cc12` [Compound 37, N-isopropyl-8-methoxy-5-[4-(trifluoromethyl)phenyl]naphthalene-2-carboxamide]: less than 0.1 µM; for `COc1cccc(CNC(=O)c2ccc3c(-c4ccc(C(F)(F)F)cc4)cccc3c2)c1` [Compound 240, N-(3-methoxybenzyl)-5-(4-(trifluoromethyl)phenyl)-2-naphthamide]: 0.1 to 1 µM.
As to `COCCC(=O)Nc1cccc(CNC(=O)c2ccc3c(-c4ccc(C(F)(F)F)cc4)cccc3c2)c1` [Compound 234, N-(3-(3-methoxypropanamido)benzyl)-5-(4-(trifluoromethyl)phenyl)-2-naphthamide], the IC50 is less than 0.1 µM.
In the case of `CC(C)NC(=O)c1ccc2c(-c3ccc(C(F)(F)F)cc3)ccc(NS(C)(=O)=O)c2c1` [Compound 23, N-isopropyl-8-(methylsulfonamido)-5-(4-(trifluoromethyl)phenyl)-2-naphthamide], the IC50 was less than 0.1 µM.
On the same count and under the same terms, the figure for `CC(C)NC(=O)c1ccc2c(-c3ccc(C(F)(F)F)cc3)cc(=O)n(C)c2c1` [Compound 306, N-Isopropyl-1-methyl-2-oxo-4-(4-(trifluoromethyl)phenyl)-1,2-dihydroquinoline-7-carboxamide] is 0.1 to 1 µM; for `O=C(NCc1ccnc(F)c1)c1ccc2c(-c3ccc(C(F)(F)F)cc3)cccc2c1` [Compound 211, N-((2-fluoropyridin-4-yl)methyl)-5-(4-(trifluoromethyl)phenyl)-2-naphthamide] it is less than 0.1 µM; for `CC#C[C@H](C)NC(=O)c1ccc2c(-c3ccc(C(F)(F)F)cc3)cccc2c1` [Compound 272, (S)—N-(pent-3-yn-2-yl)-5-(4-(trifluoromethyl)phenyl)-2-naphthamide] it is less than 0.1 µM.
The same measure, in the same setting: the figure for `N#Cc1cccc(CNC(=O)c2ccc3c(-c4ccc(C(F)(F)F)cc4)cccc3c2)c1` [Compound 215, N-(3-cyanobenzyl)-5-(4-(trifluoromethyl)phenyl)-2-naphthamide] is less than 0.1 µM.
In the case of `CC(C)NC(=O)c1ccc2c(-c3ccc(C(F)(F)F)cc3)cc3nncn3c2c1` [Compound 307, N-Isopropyl-5-(4-(trifluoromethyl)phenyl)-[1,2,4]triazolo[4,3-a]quinoline-8-carboxamide], the IC50 lay in the range of 0.1 to 1 µM.
Turning to `CC(C)NC(=O)c1ccc2c(-c3ccc(C(F)(F)F)cc3)cn3ncnc3c2c1` [Compound 298, N-Isopropyl-6-(4-(trifluoromethyl)phenyl)-[1,2,4]triazolo[5,1-a]isoquinoline-9-carboxamide], the IC50 lay in the range of 0.1 to 1 µM.
In the case of `O=C(NCCSSCCNC(=O)c1ccc2c(-c3ccc(C(F)(F)F)cc3)cccc2c1)c1ccc2c(-c3ccc(C(F)(F)F)cc3)cccc2c1` [Compound 115, N,N′-(disulfanediylbis(ethane-2,1-diyl))bis(5-(4-(trifluoromethyl)phenyl)-2-naphthamide)], the IC50 was 1 to 3 µM.
`CCc1ccc(-c2ccc(C(F)(F)F)cc2)c2ccc(C(=O)NC(C)C)cc12` [Compound 21, 8-ethyl-N-isopropyl-5-[4-(trifluoromethyl)phenyl]naphthalene-2-carboxamide]: the IC50 was less than 0.1 µM.
